The values that follow come from patent US20080057136A1, “Disinfecting Composition and Methods of Making and Using Same” (priority 2003, published 2008).

In brackets after ≈: the same amount, converted by molar mass. Several values for one entry are separate records, joined by “and”; a condition that tells them apart may be missing. Equal entries are not always repeated.

Assay [1] deals with C. albicans ATCC 10231. As to the kind of experiment: NCCLS broth microdilution MIC and MFC (Example 11). The assay is classed as cell-based, Candida albicans. The conditions noted are these: for MIC: amphotericin B complete inhibition, terbinafine 50%/90%; for fungicidal activity: MFC within 1 doubling dilution of the MIC. A general note: Dilution methods test growth across graded concentrations, often in twofold steps.
Description: (§3) Strains of C. albicans (ATCC 10231) and T. rubrum (ATCC 28188) were tested in this study. Strains were removed from frozen stock and subcultured twice on blood agar to ensure that the strains had optimal growth and metabolic status before testing. Strains were tested by NCCLS broth microdilution (M27-A2, 2002) and challenged with AMC solution and its individual components […] ), and isopropanol. Amphotericin B, fluconazole, terbinafine, and Hibiclens were added as comparator compounds. […] Microtiter panels were created on the day of MIC testing. A 50 μl aliquot of RPMI 1640 was delivered to each well except those in column one of the microtiter panel. The working solution of AMC and each of its components, and comparative agents were delivered to the designated wells in column one; AMC, components, and comparators were serially diluted across the panel. A 50 μl aliquot of fungal suspension was then added to each well on the microtiter panel, using a new pipette tip for each aliquot. […] For amphotericin B, the endpoint was read as the complete inhibition of growth. […] MFCs were performed to determine the concentration at which ≧99% of the starting fungal inoculum was killed. […] After incubation, colony counts for each panel well plated were recorded. […] The endpoint for amphotericin B was read as complete inhibition of growth.

In assay [2] the test system is T. rubrum ATCC 28188. As to the kind of experiment: NCCLS broth microdilution MIC and MFC (Example 10). Type of assay: cell-based, Trichophyton rubrum. The conditions noted are these: Example 10; for MIC: 80% reduction in growth, amphotericin B complete inhibition; for MFC: 99.9% inhibition of growth; for fungicidal activity: MFC within 1 doubling dilution of the MIC.
Description: (§4) Strains of E. coli (ATCC 11229), D. aeruginosa (ATCC 15442), S. aureus (ATCC 25923), S. epidermidis (ATCC 12228), S. pyogenes (ATCC 19615), C. albicans (ATCC 10231), and T. rubrum (ATCC 28188) were used as “challenge microorganisms” in this study. Strains were removed from frozen stock and subcultured twice on blood agar to ensure that the strains had optimal growth and metabolic status before testing.
(§5) Amphotericin B, fluconazole, and Hibiclens were added as comparative agents in the fungal panels.
(§6) For testing purposes, AMC, AMC components, and Hibiclens were diluted to 50% of the working solution to cover the proposed AMC use dilution of 20%.
(§7) Microtiter panels were created on the day of MIC testing. A 50 μl aliquot of Mueller-Hinton broth (for bacterial strains) or RPMI 1640 (for fungal strains) was delivered to each well, except those in column one of the microtiter panel. The working solution of AMC and each of its components, and comparative agents were delivered to the designated wells in column one. AMC, components, and comparators were serially diluted across the panel. A 50 μl aliquot of bacterial or fungal suspension was then added to each well on the microtiter panel, using a new pipette tip for each aliquot. Panels were incubated at 35° C. for 16-20 h for the E. coli, P. aeruginosa, and S. aureus strains, 20-24 h for the S. pyogenes strain, and 48 h for the C. albicans strain. T. rubrum panels were incubated for 3 to 4 days before MICs were read. […] Fungal MICs (%) were read using an 80% reduction in the growth endpoint relative to the turbidity of the growth control for AMC, its components, and fluconazole. For amphotericin B, the endpoint was read as the complete inhibition of growth.
(§8) MFCs were determined in a similar manner.
(§9) The endpoint for amphotericin B was read as complete inhibition of growth. The MIC % is expressed as g/100 ml or ml/100 ml. […] The MFC % is expressed as g/100 ml or ml/100 ml.

For assay [3], the system named is C. albicans ATCC 10231. As to the kind of experiment: NCCLS broth microdilution MIC and MFC (Example 10). The conditions noted are these: for MIC: amphotericin B complete inhibition; for fungicidal activity: MFC within 1 doubling dilution of the MIC. Type of assay: cell-based, Candida albicans.
Description: as §4, §5, §6, §7, §8, §9
The test system of assay [4] is T. rubrum ATCC 28188. As to the kind of experiment: NCCLS broth microdilution MIC and MFC (Example 11). The assay is classed as cell-based, Trichophyton rubrum. The note with it: Example 11; for fungicidal activity: MFC within 1 doubling dilution of the MIC.
Description: as §3
Assay [5] deals with Trichophyton rubrum (ATCC 28188). As to the kind of experiment: Time-Kill test (Example 9). The assay is classed as cell-based. The conditions noted are these: Study 506-103.
Description: (§10) A panel of “challenge microorganisms,” including select bacteria, yeast, and fungi was used to assess the disinfecting properties of test compounds, e.g., AMC (DPT Laboratories). […] The procedure was based on the ASTM procedure entitled, “Standard Test Method for the Assessment of Microbial Activity of Test Materials Using Time-Kill Procedure.”
(§11) A single lot of test material was prepared at various concentrations, along with multiple compounds prepared in various concentrations and combinations. These test materials were tested in duplicate against various bacteria, yeast and fungi. To minimize potential buffer interference and to minimize reduction of antimicrobial activity, the volume of the inoculum added to the test material was maintained at, or below, 1% of the total volume of the test. Samples were removed at various contact times. Serial dilutions were performed, and duplicate aliquots were plated. The plates were then incubated, and the average colony forming units (CFU) recovered per milliliter were determined for each contact time. The contact times for the test compounds with S. aureus, E. coli, P. aeruginosa, and C. albicans were 30 sec, 1 min, and 5 min. The contact times for the test compounds with B. subtilis were 1 and 10 min, 1 h, 2 h, 3 h, and 24 h. The contact times for the test compounds with T. rubrum were 30 sec, 1 min and 10 min. The contact temperature was ambient room temperature (20-21° C.).
The fungus, T. rubrum, was inoculated onto Emmon's agar (EA) and incubated at 25-30° C. for 10-15 days. The mycelial mats from mature cultures were removed from the surface of at least 5 plates and macerated with sterile saline (SS) in a sterile glass tissue grinder. The suspension was filtered through sterile glass wool to remove the hyphae.
The density of the conidial suspension was determined by serially diluting the prepared culture in BPDW. Aliquots from selected dilutions were plated on duplicate EA plates. The plates were incubated for 3-5 days at 25-30° C. and then each plate was examined for enumeration.
The suspension was stored at 2-10° C. for 4 weeks before use. On the day of testing, the suspension was adjusted to yield approximately 5.0×10^8 CFU by dilution with BPDW.
(§12) Compliant with the ASTM procedure cited above, the challenge microorganism was added to the test material by dispensing 99 ml of the test material into two sterile flasks, each containing a stir bar. The reaction flasks were allowed to equilibrate to the test temperature for at least 10 minutes. The flasks were placed in water baths on stir plates and maintained at the test temperature with stirring. A 1 ml aliquot of the prepared inoculum of the challenge microorganism was added to each flask to begin the contact period. At each contact time, 1 ml aliquot samples were removed and added to tubes containing 9 ml PBDW+. Serial 10-fold dilutions of each sample were then prepared in PBDW dilution blanks. Duplicate aliquots from selected dilutions were plated using the appropriate agar.
(§13) Upon completion of all contact periods, all plates were inverted and incubated for the appropriate time and temperature as follows: bacteria and yeast were incubated over 2 nights at 37° C.±2° C., and the fungus was incubated for at least 5 nights at 25-30° C. Following incubation, all plates were removed, the colonies were counted and the CFU recovered per ml at each contact time were calculated.
In the next assay the test system is T. rubrum. As to the kind of experiment: MIC and MBC determination by doubling dilutions (Study 509-102). The assay is classed as cell-based, Trichophyton rubrum. The text has this: (§1) Table 2 below indicates the stock dilutions for each test agent, and a breakdown of the resulting concentrations for each of the doubling dilutions performed is summarized in Table 3.
(§2) From the stock dilutions, an initial 1:10 dilution was made (representing tube 1), followed by doubling dilutions (tubes 2-12), as detailed in Table 3.

The subject of assay [6] is Candida albicans (ATCC 10231). As to the kind of experiment: Time-Kill test (Example 9). Type of assay: cell-based. The note with it: Study 506-103.
Description: as §10, §11
Bacteria and C. albicans from stock cultures were transferred into trypticase soya broth (TSB) and incubated for 18-24 hours at 37° C.±2° C. A second transfer was made onto Trypticase Soya Agar (TSA). The plate was removed from incubation and the growth was washed from the agar surface with Butterfield's Phosphate Buffered Dilution Water (PBDW). The microbe concentration was measured using a spectrophotometric technique well-known in the art. The suspension was subsequently adjusted to contain approximately 10^8 colony forming units (CFU) per ml. • 2.
as §12, §13
For each challenge microorganism, 99 ml of PBDW was dispensed into a sterile flask, and a 1 ml aliquot of prepared inoculum was added to the flask with stirring.
Another assay concerns C. albicans. As to the kind of experiment: MIC and MBC determination by doubling dilutions (Study 509-102). Type of assay: cell-based. The conditions noted are these: Candida albicans, Inoculum Counts: 6.6 × 10^5.
Description: as §1, §2

[7] abbreviates: Study 509-102, Inoculum Counts: 3.6 × 10^8.
The mark [8] stands for this setting: Candida albicans, ATCC10231, 80% reduction in growth, read-out: MIC.
Where [9] appears, read: Candida albicans, ATCC10231, read-out: MFC.
Setting [10] is: Trichophyton rubrum, ATCC28188, read-out: MFC.
The mark [11] stands for this setting: Trichophyton rubrum, Study 509-102, Inoculum Counts: 3.6 × 10^8.

Consider `C[C@@H]1[C@H](O)[C@@H](C)/C=C/C=C/C=C/C=C/C=C/C=C/C=C/[C@H](O[C@@H]2O[C@H](C)[C@@H](O)[C@H](N)[C@@H]2O)C[C@@H]2O[C@](O)(C[C@@H](O)C[C@@H](O)[C@H](O)CC[C@@H](O)C[C@@H](O)CC(=O)O[C@H]1C)C[C@H](O)[C@H]2C(=O)O` [Amphotericin B], for which the “MFC” value in the assay with C. albicans ATCC 10231 [1] was 0.5 µg/mL (≈ 0.541 µM); in the assay on T. rubrum ATCC 28188 [2], 0.5 µg/mL (≈ 0.541 µM); against C. albicans ATCC 10231 [3] (99.9% inhibition of growth), 0.12 µg/mL (≈ 0.13 µM); in the assay with T. rubrum ATCC 28188 [4], 0.5 µg/mL (≈ 0.541 µM). Further, the “MIC” value was found to be 0.25 µg/mL (≈ 0.271 µM) in the assay on C. albicans ATCC 10231 [1] (80% reduction in growth); 0.25 µg/mL (≈ 0.271 µM) against T. rubrum ATCC 28188 [2]; 0.12 µg/mL (≈ 0.13 µM) in the assay with C. albicans ATCC 10231 [3] (80% reduction in growth); 0.25 µg/mL (≈ 0.271 µM) in the assay on T. rubrum ATCC 28188 [4] (80% reduction in growth, amphotericin B complete inhibition). In addition, the fungicidal activity result in the assay with C. albicans ATCC 10231 [1] is “Fungicidal activity”; in the assay on T. rubrum ATCC 28188 [2] it was “Fungicidal activity was observed”; in the assay on C. albicans ATCC 10231 [3] it was “Fungal activity”; in the assay with T. rubrum ATCC 28188 [4], “Fungicidal activity was observed”. Also, the “Log10 Reduction” value in assay [5] (30 sec. contact) is 1.0 Log10; in assay [5] (60 sec. contact) it was 1.2 Log10 and 1.1 Log10; in assay [5] (10 min. contact), 1.0 Log10. Moreover, the “CFUs recovered per milliliter of T. rubrum culture” value in assay [5] (30 sec. contact, initial 1.0 × 10^6 CFU/ml, Amphotericin B 2.5 mg/L) is 1.0 × 10^5 CFU/ml and 1.1 × 10^5 CFU/ml; in assay [5] (60 sec. contact), 6.9 × 10^4 CFU/ml and 8.7 × 10^4 CFU/ml. The “MBC (ppm)” value with T. rubrum (setting [7]) is on record as greater than 0.25 ppm. In the assay with T. rubrum (setting [7]), the “MIC (ppm)” value is greater than 0.25 ppm. Further, in the assay with T. rubrum (Table 23, row head prints μg/mL), the “MIC Against T. rubrum” value is greater than 0.25 µg/mL.
For the molecule `OC(Cn1cncn1)(Cn1cncn1)c1ccc(F)cc1F` [Fluconazole], the MIC with C. albicans ATCC 10231 [1] (setting [8]) was 0.5 µg/mL (≈ 1.63 µM); with T. rubrum ATCC 28188 [2] (Trichophyton rubrum, ATCC28188, read-out: MIC), 2 µg/mL (≈ 6.53 µM); with C. albicans ATCC 10231 [3] (setting [8]), 0.5 µg/mL (≈ 1.63 µM); in the assay with T. rubrum ATCC 28188 [4] (Trichophyton rubrum, ATCC28188, 80% reduction in growth, amphotericin B complete inhibition, read-out: MIC), 2 µg/mL (≈ 6.53 µM). The MFC in the assay with C. albicans ATCC 10231 [1] (setting [9]) was found to be 1 µg/mL (≈ 3.27 µM); in the assay with T. rubrum ATCC 28188 [2] (setting [10]) it was 8 µg/mL (≈ 26.1 µM); with C. albicans ATCC 10231 [3] (Candida albicans, ATCC10231, 99.9% inhibition of growth, read-out: MFC), 2 µg/mL (≈ 6.53 µM); with T. rubrum ATCC 28188 [4] (setting [10]), 64 µg/mL (≈ 209 µM). Besides, the fungicidal activity entry is reported as “Fungicidal activity” in the assay with C. albicans ATCC 10231 [1], “did not demonstrate fungicidal activity” in the assay with T. rubrum ATCC 28188 [2], “not considered fungicidal” in the assay on C. albicans ATCC 10231 [3] and “did not demonstrate fungicidal activity” with T. rubrum ATCC 28188 [4]. The “Log10 Reduction” value in assay [6] (30 sec. contact), in assay [6] (60 sec. contact) and in assay [6] (5 min. contact) was less than 1.0 Log10 throughout. Besides, the “CFUs recovered per milliliter of C. albicans culture” value is 3.0 × 10^6 CFU/ml in assay [6] (30 sec. contact, initial 3.0 × 10^7 CFU/ml, Fluconazole 2 mg/ml); 3.0 × 10^6 CFU/ml in assay [6] (60 sec. contact); 3.0 × 10^6 CFU/ml in assay [6] (5 min. contact).
In the case of `Clc1ccc(COC(Cn2ccnc2)c2ccc(Cl)cc2Cl)c(Cl)c1` (centres unmarked) [Miconazole], in the assay on C. albicans, the MBC came to 2 µg/mL (≈ 4.81 µM) and the MIC was found to be 2 µg/mL (≈ 4.81 µM). In the assay with T. rubrum (setting [11]), the MBC was 0.25 µg/mL (≈ 0.601 µM) and the MIC was determined as 0.25 µg/mL (≈ 0.601 µM).
In the case of `CN(C/C=C/C#CC(C)(C)C)Cc1cccc2ccccc12` [Terbinafine], the “MIC” value in the assay with C. albicans ATCC 10231 [1] (80% reduction in growth) was greater than 0.5 µg/mL; in the assay on C. albicans ATCC 10231 [1] (setting [8]), greater than 0.5 µg/mL; in the assay with T. rubrum ATCC 28188 [4] (Trichophyton rubrum, ATCC28188, read-out: MIC (μg/ml), read at 50% inhibition of growth, terbinafine, 50% reading), 0.008 µg/mL (≈ 0.0275 µM); with T. rubrum ATCC 28188 [4] (Trichophyton rubrum, ATCC28188, read-out: MIC (μg/ml), read at 90% inhibition of growth, terbinafine, 90% reading), 0.032 µg/mL (≈ 0.11 µM). In addition, the MFC in the assay with C. albicans ATCC 10231 [1] (setting [9]) is greater than 0.5 µg/mL; in the assay with T. rubrum ATCC 28188 [4] (setting [10]), 0.125 µg/mL (≈ 0.429 µM). Further, the fungicidal activity result is given as “Fungicidal activity” in the assay with C. albicans ATCC 10231 [1] and “did not demonstrate fungicidal activity” in the assay on T. rubrum ATCC 28188 [4].
